According to PMC10726358 (Journal of Medicinal Chemistry, 2023):

Legend:
[1] = CAD aqueous solubility
Protocol: To understand cellular target engagement, 21 was tested in an LPS-stimulated hWB assay measuring inhibition of the inflammatory mediator MCP-1 secretion.
ChromatographicLogD at pH 7.4, artificial membrane permeability, CLND solubility, and CAD solubility were measured using published protocols.[55]

[2] = target: BRD2 BD1 (Homo sapiens, UniProt P25440); assay: BRD2 BD1 TR-FRET assay; format: binding
Protocol: (§1) The BRD4 BD1/BD2 TR-FRET assay had been used routinely for this optimization work, and in order to better understand the BET BD1 domain selectivity profile, 31 was tested in TR-FRET BRD2, BRD3, and BRDT assays.
(§2) All TR-FRET and hWB cytokine assays have been described previously.[54]

[3] = target: T1, BRDT BD2 (Homo sapiens, UniProt Q58F21); assay: BRDT BD2 TR-FRET assay; format: binding
Protocol: as §1, §2

[4] = target: T2, BRD4 BD2 (Homo sapiens, UniProt O60885); assay: BROMOscan BRD4 BD2; format: binding
T2 construct: BRD4 BD2; purchased DiscoverX
Protocol: as §1
(§3) [52] BROMOscan recombinant protein binding assays were carried out at DiscoverX. (accessed April 4, 2023).

[5] = target: T1, BRDT BD2; assay: BROMOscan BRDT BD2; format: binding
Protocol: as §1, §3

[6] = target: T3, ATAD2A (Homo sapiens, UniProt Q6PL18); assay: BROMOscan ATAD2A; format: binding
T3 construct: ≥2000-fold selectivity over all 20 non-BET bromodomains tested; purchased DiscoverX
Protocol: as §1, §3

[7] = target: T4, ATAD2B (Homo sapiens, UniProt Q9ULI0); assay: BROMOscan ATAD2B; format: binding
T4 construct: ≥2000-fold selectivity over all 20 non-BET bromodomains tested; purchased DiscoverX
Protocol: as §1, §3

[8] = target: T5, BAZ2B (Homo sapiens, UniProt Q9UIF8); assay: BROMOscan BAZ2B; format: binding
T5 construct: ≥2000-fold selectivity over all 20 non-BET bromodomains tested; purchased DiscoverX
Protocol: as §1, §3

[9] = target: T6, BRD1 (Homo sapiens, UniProt O95696); assay: BROMOscan BRD1; format: binding
T6 construct: ≥2000-fold selectivity over all 20 non-BET bromodomains tested; purchased DiscoverX
Protocol: as §1, §3

[10] = target: T7, BRPF3 (Homo sapiens, UniProt Q9ULD4); assay: BROMOscan BRPF3; format: binding
T7 construct: ≥2000-fold selectivity over all 20 non-BET bromodomains tested; purchased DiscoverX
Protocol: as §1, §3

[11] = target: T8, GCN5 (Homo sapiens, UniProt Q92830); assay: BROMOscan GCN5; format: binding
T8 construct: ≥2000-fold selectivity over all 20 non-BET bromodomains tested; purchased DiscoverX
Protocol: as §1, §3

[12] = target: T9, PBRM1 BD2 (Homo sapiens, UniProt Q86U86); assay: BROMOscan PBRM1 BD2; format: binding
T9 construct: PBRM1 BD2; purchased DiscoverX
Protocol: as §1, §3

[13] = target: T10, PBRM1 BD5 (Homo sapiens, UniProt Q86U86); assay: BROMOscan PBRM1 BD5; format: binding
T10 construct: PBRM1 BD5; purchased DiscoverX
Protocol: as §1, §3

[14] = tested on: non-BET bromodomains; assay: BROMOscan non-BET bromodomain panel; format: binding, human
Protocol: as §1, §3

[15] = tested on: pharmacologically relevant off-targets; assay: GSK enhanced cross-screening panel (whole panel); conditions: no activity at the concentrations tested
[16] = target: T11, 5-HT3 (Homo sapiens, UniProt P46098); assay: Cross screening: 5-HT3 Agonist; format: biochemical
T11 construct: purchased GSK enhanced cross-screening panel (in-house)

[17] = target: T12, CB1 (Homo sapiens, UniProt P21554); assay: Cross screening: CB1 Agonist; format: biochemical
T12 construct: purchased GSK enhanced cross-screening panel (in-house)

[18] = target: T13, MRGPRX2 (Homo sapiens, UniProt Q96LB1); assay: Cross screening: MRGPRX2 Agonist; format: biochemical
T13 construct: purchased GSK enhanced cross-screening panel (in-house)

[19] = target: T14, 5-HT2B (Homo sapiens, UniProt P41595); assay: Cross screening: 5-HT2B Agonist; format: biochemical
T14 construct: purchased GSK enhanced cross-screening panel (in-house)

[20] = target: T15, 5-HT2C (Homo sapiens, UniProt P28335); assay: Cross screening: 5-HT2C Agonist; format: biochemical
T15 construct: purchased GSK enhanced cross-screening panel (in-house)

[21] = target: T16, AR (Homo sapiens, UniProt P10275); assay: Cross screening: AR Agonist; format: biochemical
T16 construct: purchased GSK enhanced cross-screening panel (in-house)

[22] = target: T17, Alpha 1 nAChR (Homo sapiens, UniProt P02708+P07510+Q07001); assay: Cross screening: Alpha 1 nAChR Agonist; format: biochemical
T17 construct: purchased GSK enhanced cross-screening panel (in-house)

[23] = target: T18, Dopamine 2 (D2) (Homo sapiens, UniProt P14416); assay: Cross screening: Dopamine 2 (D2) Antagonist; format: biochemical
T18 construct: purchased GSK enhanced cross-screening panel (in-house)

[24] = target: T19, NET (Homo sapiens, UniProt P23975); assay: Cross screening: NET blocker; format: biochemical
T19 construct: purchased GSK enhanced cross-screening panel (in-house)

[25] = target: T20, PI3K-gamma (Homo sapiens, UniProt P48736); assay: Cross screening: PI3K-gamma inhibitor; format: biochemical
T20 construct: purchased GSK enhanced cross-screening panel (in-house)

[26] = target: T21, SERT (Homo sapiens, UniProt P31645); assay: Cross screening: SERT blocker; format: biochemical
T21 construct: purchased GSK enhanced cross-screening panel (in-house)

[27] = target: T22, Histamine 1 (Homo sapiens, UniProt P35367); assay: Cross screening: Histamine 1 antagonist; format: biochemical
T22 construct: purchased GSK enhanced cross-screening panel (in-house)

[28] = target: T23, M1 (Homo sapiens, UniProt P11229); assay: Cross screening: M1 antagonist; format: biochemical
T23 construct: purchased GSK enhanced cross-screening panel (in-house)

[29] = target: T15, 5-HT2C; assay: Cross screening: 5-HT2C antagonist; format: biochemical
[30] = target: BSEP (Homo sapiens, UniProt O95342); assay: Cross screening: BSEP inhibitor
[31] = target: Nav1.5 (Homo sapiens, UniProt Q14524); assay: Cross screening: Nav1.5 blocker
[32] = target: OATP1B1 (Homo sapiens, UniProt Q9Y6L6); assay: Cross screening: OATP1B1 inhibitor
[33] = target: CYP3A4 (Homo sapiens, UniProt P08684); assay: Cross screening: CYP3A4 inhibition
[34] = tested on: Phospholipoidosis induction; assay: Cross screening: Phospholipoidosis induction

Chain of BRD2 BD1 (P25440 74-180 limits assumed): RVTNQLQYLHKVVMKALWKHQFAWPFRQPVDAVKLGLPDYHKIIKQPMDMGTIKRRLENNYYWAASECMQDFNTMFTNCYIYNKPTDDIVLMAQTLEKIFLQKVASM
T15 sequence (P28335 33-458): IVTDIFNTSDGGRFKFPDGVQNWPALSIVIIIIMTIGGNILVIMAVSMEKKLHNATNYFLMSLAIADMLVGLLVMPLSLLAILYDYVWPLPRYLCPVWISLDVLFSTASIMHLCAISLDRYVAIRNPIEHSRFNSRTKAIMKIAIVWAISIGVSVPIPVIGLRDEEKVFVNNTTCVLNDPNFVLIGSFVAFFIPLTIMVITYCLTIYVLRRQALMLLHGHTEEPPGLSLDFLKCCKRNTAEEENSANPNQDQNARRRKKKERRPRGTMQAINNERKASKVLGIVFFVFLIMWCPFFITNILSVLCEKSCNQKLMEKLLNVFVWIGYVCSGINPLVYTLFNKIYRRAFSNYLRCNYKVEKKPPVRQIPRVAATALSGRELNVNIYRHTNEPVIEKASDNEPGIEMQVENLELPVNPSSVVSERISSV
T18 sequence (P14416 whole entry): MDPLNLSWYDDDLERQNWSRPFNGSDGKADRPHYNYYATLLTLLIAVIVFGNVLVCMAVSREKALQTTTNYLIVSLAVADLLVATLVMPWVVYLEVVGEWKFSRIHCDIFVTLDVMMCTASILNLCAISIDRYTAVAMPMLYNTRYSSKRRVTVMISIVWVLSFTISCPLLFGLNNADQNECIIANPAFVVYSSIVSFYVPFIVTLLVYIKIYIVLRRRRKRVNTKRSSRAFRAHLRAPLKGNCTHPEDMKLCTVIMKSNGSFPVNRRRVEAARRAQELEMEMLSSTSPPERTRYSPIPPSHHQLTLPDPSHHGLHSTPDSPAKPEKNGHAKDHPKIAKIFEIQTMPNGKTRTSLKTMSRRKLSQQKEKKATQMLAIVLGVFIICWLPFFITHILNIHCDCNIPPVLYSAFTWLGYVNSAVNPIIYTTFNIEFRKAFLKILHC
T23 sequence (P11229 whole entry): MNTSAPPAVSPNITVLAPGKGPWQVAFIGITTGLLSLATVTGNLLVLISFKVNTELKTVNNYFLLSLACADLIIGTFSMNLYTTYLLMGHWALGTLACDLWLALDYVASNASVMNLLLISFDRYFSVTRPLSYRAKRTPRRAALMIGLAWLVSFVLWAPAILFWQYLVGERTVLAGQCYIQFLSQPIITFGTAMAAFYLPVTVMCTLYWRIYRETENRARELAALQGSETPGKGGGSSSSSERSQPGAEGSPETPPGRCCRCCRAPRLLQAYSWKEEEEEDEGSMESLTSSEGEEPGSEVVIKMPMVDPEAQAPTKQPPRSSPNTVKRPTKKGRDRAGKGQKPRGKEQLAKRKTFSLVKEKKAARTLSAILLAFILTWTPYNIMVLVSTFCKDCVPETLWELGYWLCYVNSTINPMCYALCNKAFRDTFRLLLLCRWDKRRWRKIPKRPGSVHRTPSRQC
T12 sequence (P21554 whole entry): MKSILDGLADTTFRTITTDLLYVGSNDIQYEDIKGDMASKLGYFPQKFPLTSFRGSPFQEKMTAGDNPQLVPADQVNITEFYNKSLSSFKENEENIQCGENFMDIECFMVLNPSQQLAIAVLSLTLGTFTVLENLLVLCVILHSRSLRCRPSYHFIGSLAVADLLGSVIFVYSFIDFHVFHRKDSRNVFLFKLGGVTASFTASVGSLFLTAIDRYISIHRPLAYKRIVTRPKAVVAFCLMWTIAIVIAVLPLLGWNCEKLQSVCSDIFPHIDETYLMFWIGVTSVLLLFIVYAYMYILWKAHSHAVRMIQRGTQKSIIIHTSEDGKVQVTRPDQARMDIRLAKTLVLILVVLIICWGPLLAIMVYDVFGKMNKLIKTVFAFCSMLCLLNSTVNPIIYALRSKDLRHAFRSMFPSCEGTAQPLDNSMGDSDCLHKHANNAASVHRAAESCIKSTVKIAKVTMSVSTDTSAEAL
T8 sequence (Q92830 728-832 limits assumed): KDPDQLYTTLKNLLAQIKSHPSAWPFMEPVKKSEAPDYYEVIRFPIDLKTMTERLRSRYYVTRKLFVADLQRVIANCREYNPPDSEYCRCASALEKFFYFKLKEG
T7 sequence (Q9ULD4 589-693 limits assumed): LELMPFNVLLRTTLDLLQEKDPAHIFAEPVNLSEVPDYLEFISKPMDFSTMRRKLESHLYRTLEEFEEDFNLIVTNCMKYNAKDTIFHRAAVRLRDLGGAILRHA
T22 sequence (P35367 whole entry): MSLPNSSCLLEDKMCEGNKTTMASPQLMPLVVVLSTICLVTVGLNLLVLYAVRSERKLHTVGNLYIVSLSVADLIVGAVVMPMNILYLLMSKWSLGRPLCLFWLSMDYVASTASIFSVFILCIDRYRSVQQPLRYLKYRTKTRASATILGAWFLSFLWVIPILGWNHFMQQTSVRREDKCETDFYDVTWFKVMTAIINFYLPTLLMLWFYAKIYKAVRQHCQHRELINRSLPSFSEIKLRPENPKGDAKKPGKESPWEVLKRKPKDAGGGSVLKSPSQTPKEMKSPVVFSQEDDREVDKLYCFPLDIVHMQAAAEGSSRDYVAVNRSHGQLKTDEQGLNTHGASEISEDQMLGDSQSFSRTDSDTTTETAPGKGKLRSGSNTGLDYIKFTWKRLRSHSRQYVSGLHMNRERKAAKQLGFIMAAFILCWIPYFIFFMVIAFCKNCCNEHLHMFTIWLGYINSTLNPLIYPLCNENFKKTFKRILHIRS
Chain of BSEP (O95342 whole entry): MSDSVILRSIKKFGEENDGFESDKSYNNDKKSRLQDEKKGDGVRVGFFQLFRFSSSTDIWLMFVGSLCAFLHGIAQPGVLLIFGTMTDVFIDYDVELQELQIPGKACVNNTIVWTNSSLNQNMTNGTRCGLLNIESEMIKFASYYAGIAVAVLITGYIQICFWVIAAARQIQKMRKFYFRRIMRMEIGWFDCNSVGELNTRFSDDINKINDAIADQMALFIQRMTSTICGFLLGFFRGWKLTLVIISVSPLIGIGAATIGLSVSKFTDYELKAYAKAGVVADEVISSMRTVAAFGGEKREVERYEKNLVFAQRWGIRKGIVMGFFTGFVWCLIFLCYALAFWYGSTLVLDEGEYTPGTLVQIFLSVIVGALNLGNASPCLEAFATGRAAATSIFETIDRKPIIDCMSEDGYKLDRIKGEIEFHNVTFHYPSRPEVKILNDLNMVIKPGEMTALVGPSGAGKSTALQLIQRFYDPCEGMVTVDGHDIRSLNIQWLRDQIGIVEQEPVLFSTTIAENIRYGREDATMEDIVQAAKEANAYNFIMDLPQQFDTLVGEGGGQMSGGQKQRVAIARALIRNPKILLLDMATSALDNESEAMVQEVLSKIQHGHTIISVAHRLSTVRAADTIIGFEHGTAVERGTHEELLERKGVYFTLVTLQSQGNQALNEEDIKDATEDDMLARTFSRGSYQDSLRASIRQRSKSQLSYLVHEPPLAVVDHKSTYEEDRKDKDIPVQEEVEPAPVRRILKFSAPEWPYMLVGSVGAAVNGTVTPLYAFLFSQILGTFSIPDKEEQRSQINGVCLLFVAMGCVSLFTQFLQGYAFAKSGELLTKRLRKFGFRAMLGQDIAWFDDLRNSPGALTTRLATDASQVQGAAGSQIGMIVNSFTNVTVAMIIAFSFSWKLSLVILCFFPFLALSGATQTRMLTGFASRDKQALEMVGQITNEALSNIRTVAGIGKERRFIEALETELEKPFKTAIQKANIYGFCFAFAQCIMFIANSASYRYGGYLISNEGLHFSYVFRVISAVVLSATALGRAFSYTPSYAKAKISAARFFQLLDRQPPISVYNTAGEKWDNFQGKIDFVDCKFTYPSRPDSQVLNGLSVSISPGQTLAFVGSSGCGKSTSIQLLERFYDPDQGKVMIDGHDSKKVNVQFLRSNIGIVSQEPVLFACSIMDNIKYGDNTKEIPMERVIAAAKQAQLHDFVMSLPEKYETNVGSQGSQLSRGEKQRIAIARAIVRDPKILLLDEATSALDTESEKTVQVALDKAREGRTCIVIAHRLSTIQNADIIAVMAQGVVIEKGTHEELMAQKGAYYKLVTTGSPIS
T16 sequence (P10275 whole entry): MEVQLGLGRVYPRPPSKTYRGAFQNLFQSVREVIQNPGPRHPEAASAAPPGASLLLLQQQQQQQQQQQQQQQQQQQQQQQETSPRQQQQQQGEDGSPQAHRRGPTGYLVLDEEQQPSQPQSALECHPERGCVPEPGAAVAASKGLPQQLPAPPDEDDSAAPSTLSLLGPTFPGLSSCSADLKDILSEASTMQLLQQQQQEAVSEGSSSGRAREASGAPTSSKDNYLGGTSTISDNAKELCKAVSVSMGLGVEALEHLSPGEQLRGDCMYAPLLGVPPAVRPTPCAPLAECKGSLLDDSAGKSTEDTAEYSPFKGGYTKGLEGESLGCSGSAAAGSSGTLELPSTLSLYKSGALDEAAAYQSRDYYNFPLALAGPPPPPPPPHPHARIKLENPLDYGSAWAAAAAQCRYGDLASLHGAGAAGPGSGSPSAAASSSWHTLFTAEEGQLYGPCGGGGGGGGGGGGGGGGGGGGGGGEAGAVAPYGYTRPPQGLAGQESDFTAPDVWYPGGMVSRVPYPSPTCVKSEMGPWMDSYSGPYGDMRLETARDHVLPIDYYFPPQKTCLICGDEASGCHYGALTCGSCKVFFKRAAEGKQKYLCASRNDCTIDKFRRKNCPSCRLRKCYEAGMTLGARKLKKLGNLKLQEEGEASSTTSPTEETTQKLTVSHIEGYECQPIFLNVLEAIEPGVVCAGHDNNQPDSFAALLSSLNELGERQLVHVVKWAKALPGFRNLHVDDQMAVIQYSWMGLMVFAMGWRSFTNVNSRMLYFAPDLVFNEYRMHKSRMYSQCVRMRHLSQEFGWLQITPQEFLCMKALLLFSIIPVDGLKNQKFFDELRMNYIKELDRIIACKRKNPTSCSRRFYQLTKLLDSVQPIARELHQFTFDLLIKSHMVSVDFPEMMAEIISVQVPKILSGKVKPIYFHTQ
T9 sequence (Q86U86 177-287 limits assumed): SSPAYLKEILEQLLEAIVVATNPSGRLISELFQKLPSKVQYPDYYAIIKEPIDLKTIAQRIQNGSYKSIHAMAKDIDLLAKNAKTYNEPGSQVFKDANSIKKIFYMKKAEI

Cc1cc(-c2nc3ccccc3n2C[C@@H]2CCCN(C(=O)C3CCN(C(C)C)CC3)C2)cn(C)c1=O [Compound 31, (S)-5-(1-((1-(1-Isopropylpiperidine-4-carbonyl)piperidin-3-yl)methyl)-1H-benzo [d]imidazole-2-yl)-1,3-dimethylpyridin-2(1H)-one]
solubility [1]: ≥ 257 µg/mL | BRD2 BD1 TR-FRET pIC50 [2]: 8.0 | fold selectivity BRD2 BD1 over BD2 ([2]; TR-FRET): 400 fold | BRDT BD2 TR-FRET pIC50 [3]: 4.5 | BROMOscan pKd BRD4 BD2 [4]: 5.6 | BROMOscan pKd BRDT BD2 [5]: 5.5 | Kd [6]: > 31.6 µM | Kd [7]: > 31.6 µM | Kd [8]: > 31.6 µM | Kd [9]: > 31.6 µM | Kd [10]: > 31.6 µM | Kd [11]: > 31.6 µM | Kd [12]: > 31.6 µM | Kd [13]: > 31.6 µM | selectivity over all non-BET bromodomains and broader liability targets tested [14]: ≥ 1200 fold | BROMOscan pKd 20 non-BET bromodomains ([14]; 20 non-BET bromodomains other than EP300): ≤4.8 | fold selectivity over 20 non-BET bromodomains ([14]; BROMOscan): ≥2000 fold | XC50 in enhanced cross-screening panel [15]: > 25 µM | pXC50 in enhanced cross-screening panel [15]: < 4.6 | pXC50 5-HT3 Agonist [16]: < 4.3 | pXC50 CB1 Agonist [17]: < 4.0 | pXC50 MRGPRX2 Agonist [18]: < 4.0 | pXC50 5-HT2B Agonist [19]: < 4.0 | pXC50 5-HT2C Agonist [20]: < 4.0 | pXC50 AR Agonist [21]: < 4.0 | pXC50 Alpha 1 nAChR Agonist [22]: < 4.2 | pXC50 Dopamine 2 (D2) Antagonist [23]: < 4.0 | pXC50 NET blocker [24]: < 4.0 | pXC50 PI3K-gamma inhibitor [25]: < 4.5 | pXC50 SERT blocker [26]: < 4.0 | pXC50 Histamine 1 antagonist [27]: < 4.6 | pXC50 M1 antagonist [28]: < 4.3 | pXC50 5-HT2C antagonist [29]: < 4.0 | pXC50 BSEP inhibitor [30]: < 3.7 | pXC50 Nav1.5 blocker [31]: < 4.3 | pXC50 OATP1B1 inhibitor [32]: < 4.3 | pXC50 CYP3A4 inhibition [33]: 4.1 | pXC50 Phospholipoidosis induction [34]: < 4
